In patent US11040975B2, “Carbocyclic nucleoside reverse transcriptase inhibitors” (Merck Sharp & Dohme Corp., priority 2017, dated 2021):

What was measured:
MT4-GFP cells = test: CTG assay: cytotoxicity in CellTiter-Glo Luminescent Cell Viability Assay; format: cell-based; conditions: CC50, MT4-GFP cells, 10% normal human serum, 48h incubation
Protocol: Assessing Cytotoxicity in CellTiter-Glo Luminescent Cell Viability Assay (CTG).
MT4-GFP cells were seeded in RPMI 1640 supplemented with 10% fetal bovine serum, 100 U/mL penicillin/streptomycin overnight at 37° C./5% CO2/90% relative humidity. Cells were then washed and resuspended in RPMI 1640 containing 10% normal human serum at a density of 0.8×10^5 cells/mL. Compound plates were prepared by dispensing compounds dissolved in DMSO into wells of 384 well solid black plates (Corning 3571) using an ECHO acoustic dispenser (0.2 μl/well). Each compound was tested in a 10 point serial 3-fold dilution (final concentrations: 8.4 μM-0.43 nM). Controls included DMSO. Cells were added (50 μL/well) to compound plates and were maintained at 37° C./5% CO2/90% relative humidity. CTG reagent (Promega, G7573) was added to the cell plates after 48h incubation according to the manufacturer's description. Luminescence signals were recorded on EnVision plate reader (PerkinElmer). CC50s were determined by non-linear 4-parameter curve fitting. The resulting data is shown in Table 3 with the marketed HIV nucleoside reverse transcriptase inhibitor AZT (azidothymidine, zidovudine) included as a control.

HIV-1 (H9IIIB virus) = test: Viking assay: antiviral potency in a multiple round HIV-1 infection assay (MT4-GFP cells); format: cell-based; conditions: Human immunodeficiency virus 1, MT4-GFP cells, 10% normal human serum; inhibition of reproductive ratio R0; read-out: Viking, IC50 (10% NHS)
Protocol: Assessing Antiviral Potency in a Multiple Round HIV-1 Infection Assay.
HIV-1 replication was monitored using MT4-gag-GFP clone D3 (hereafter designate MT4-GFP), which are MT-4 cells modified to harbor a GFP reporter gene, the expression of which is dependent on the HIV-1 expressed proteins tat and rev. Productive infection of an MT4-GFP cell with HIV-1 results in GFP expression approximately 24h post-infection.
MT4-GFP cells were maintained at 37° C./5% CO2/90% relative humidity in RPMI 1640 supplemented with 10% fetal bovine serum, 100 U/mL penicillin/streptomycin, and 400 μg/mL G418 to maintain the reporter gene. For infections, MT4-GFP cells were placed in the same medium lacking G418 and infected overnight with H9IIIB virus at an approximate multiplicity of infection of 0.01 in the same incubation conditions. Cells were then washed and re-suspended in either RPMI 1640 containing 10% or 50% normal human serum at 1.6×10^5 cells/mL. Compound plates were prepared by dispensing compounds dissolved in DMSO into wells of 384 well poly D lysine-coated plates ([…]) using an ECHO acoustic dispenser. Each compound was tested in a 10 point serial 3-fold dilution (typical final concentrations: 8.4 μM-0.43 nM). Controls included no inhibitor (DMSO only) and a combination of three antiviral agents (efavirenz, indinavir, and an integrase strand transfer inhibitor at final concentrations of 4 μM each). Cells were added (50 μL/well) to compound plates and the infected cells were maintained at 37° C./5% CO2/90% relative humidity.
Infected cells were quantified at two time points, ˜48h and ˜72h post-infection, by counting the number of green cells in each well using an Acumen eX3 scanner. The increase in the number of green cells over ˜24h period gives the reproductive ratio, R0, which is typically 5-15 and has been shown experimentally to be in logarithmic phase (data not shown). Inhibition of R0 is calculated for each well, and IC50s determined by non-linear 4-parameter curve fitting.

HIV-1 RT enzyme = target: T1, HIV-1 RT enzyme (Human immunodeficiency virus type 1 group M subtype B, UniProt P04585); test: RT Polymerase Assay; format: biochemical; conditions: HIV-1 RT 50 pM; 90 min at 37° C.; triphosphates tested; read-out: dNTP IC50
T1 construct: Full-length wild-type and 2 mutant RT proteins were expressed in Escherichia coli BL21(DE3) cells and purified; made in house; host or cells: Escherichia coli BL21(DE3)
Text: The compounds of Formula I, and pharmaceutically acceptable salts thereof, are HIV reverse transcriptase inhibitors. The compounds are useful for inhibiting HIV reverse transcriptase and for inhibiting HIV replication in vitro and in vivo. More particularly, the compounds of Formula I inhibit the polymerase function of HIV-1 reverse transcriptase. The testing of compounds of the Examples of the invention in the assay set forth in the RT Polymerase Assay below, illustrates the ability of compounds of the invention to inhibit the RNA-dependent DNA polymerase activity of HIV-1 reverse transcriptase. The compounds of Formula I may also be useful agents against HIV-2.
Full-length wild-type and 2 mutant RT proteins were expressed in Escherichia coli BL21(DE3) cells and purified. Briefly, the heterodimeric nucleic acid substrate used in the HIV-1 RT polymerase reactions was generated by annealing biotinylated DNA primer to a 500 nucleotide RNA template. The HIV-1 RT enzyme (final concentration of 50 pM) was combined with an inhibitor compound or DMSO (10% DMSO in the final reaction mixture) in assay buffer (62.5 mM Tris-HCl, pH 7.8, 1.25 mM dithiothreitol, 7.5 mM MgCl2, 100 mM KCl, 0.03% CHAPS, 0.125 mM EGTA). This mixture was pre-incubated for 30 minutes at room temperature in microtiter plates. The polymerization reaction was initiated by the addition of template/primer substrate (final concentration: 16.6 nM) and dNTPs (final concentration: 2 μM dCTP, dGTP, dATP, and 66.6 nM Ru-dUTP). After 90 min of incubation at 37° C., reactions were quenched by the addition of EDTA (25 mM). The resulting mixture was incubated for an additional 5 minutes at room temperature followed by transferring the solution (50 μL) to blocked avidin plate from Meso Scale Discovery (MSD). The mixtures were incubated at room temperature for 60 min prior to the quantification of the reaction product via an ECL 6000 imager instrument.

With `C#C[C@]1(CO)C[C@@H](n2cnc3c(N)nc(F)nc32)C[C@@H]1O` (racemic) [Example (+/−) 13, (1S,2S,4R)-4-(6-amino-2-fluoro-9H-purin-9-yl)-2-ethynyl-2-(hydroxymethyl)cyclopentan-1-ol and (1R,2R,4S)-4-(6-amino-2-fluoro-9H-purin-9-yl)-2-ethynyl-2-(hydroxymethyl)cyclopentan-1-ol] the CTG (MT4-GFP cells) was > 42 µM and the IC50 (HIV-1 (H9IIIB virus)) was 5.43 µM.

For `C#C[C@@]1(CO)C[C@H](n2cnc3c(N)nc(Cl)nc32)C[C@H]1O` (single isomer, unassigned) [Example 18A, (1S,2S,4R)-4-(6-amino-2-chloro-9H-purin-9-yl)-2-ethynyl-2-(hydroxymethyl)cyclopentan-1-ol or (1R,2R,4S)-4-(6-amino-2-chloro-9H-purin-9-yl)-2-ethynyl-2-(hydroxymethyl)cyclopentan-1-ol], the CTG (MT4-GFP cells) was > 42 µM and the IC50 (HIV-1 (H9IIIB virus)) was 25.2 µM.

For `Cc1cn([C@H]2C[C@H](N=[N+]=[N-])[C@@H](CO)O2)c(=O)[nH]c1=O` [AZT, 3′-azido-3′-deoxythymidine, reference compound], the “CTG” value (MT4-GFP cells) was >8.4 µM and the IC50 (HIV-1 (H9IIIB virus)) was 0.037 µM.

In the case of `C#C[C@]1(CO)C[C@@H](n2cnc3c(Cl)nc(N)nc32)C[C@@H]1O` (racemic) [Example (+/−) 14, (1S,2S,4R)-4-(2-amino-6-chloro-9H-purin-9-yl)-2-ethynyl-2-(hydroxymethyl)cyclopentan-1-ol and (1R,2R,4S)-4-(2-amino-6-chloro-9H-purin-9-yl)-2-ethynyl-2-(hydroxymethyl)cyclopentan-1-ol], the CTG (MT4-GFP cells) is reported as > 42 µM and the IC50 (HIV-1 (H9IIIB virus)) is reported as 5.64 µM.

With `C#C[C@]1(CO)C[C@@H](n2cnc3c(N)nc(Cl)nc32)C[C@@H]1O` (racemic) [Example (+/−) 18, (1S,2S,4R)-4-(6-amino-2-chloro-9H-purin-9-yl)-2-ethynyl-2-(hydroxymethyl)cyclopentan-1-ol and (1R,2R,4S)-4-(6-amino-2-chloro-9H-purin-9-yl)-2-ethynyl-2-(hydroxymethyl)cyclopentan-1-ol] the CTG (MT4-GFP cells) was > 42 µM and the IC50 (HIV-1 (H9IIIB virus)) was 19 µM.

`C#C[C@]1(CO)C[C@@H](n2cnc3c(Cl)nc(Cl)nc32)C[C@@H]1O` (racemic) [Example (+/−) 17, (1S,2S,4R)-4-(2,6-dichloro-9H-purin-9-yl)-2-ethynyl-2-(hydroxymethyl)cyclopentan-1-ol and (1R,2R,4S)-4-(2,6-dichloro-9H-purin-9-yl)-2-ethynyl-2-(hydroxymethyl)cyclopentan-1-ol] showed a CTG (MT4-GFP cells) of 19.9 µM and an IC50 (HIV-1 (H9IIIB virus)) of 17.4 µM.

Compound “((1S,2S,4R)-4-(2-amino-6-chloro-9H-purin-9-yl)-1-ethynyl-2-hydroxycyclopentyl)methyl tetrahydrogen triphosphate and ((1R,2R,4S)-4-(2-amino-6-chloro-9H-purin-9-yl)-1-ethynyl-2-hydroxycyclopentyl)methyl tetrahydrogen triphosphate [Example (+/−) 42]” has an IC50 (HIV-1 RT enzyme) of 1.32e+07 pM.
